According to patent US7786141B2 (Vertex Pharmaceuticals Incorporated, priority 2004, dated 2010):

Experiments:
M1 muscarinic receptor = target: T1, M1 muscarinic receptor (Homo sapiens, UniProt P11229); experiment: Functional mobilization of intracellular calcium (FLIPR) in M1-CHO cells; type: cell-based; conditions: Table 4; for Emax: 100% efficacy is the maximum response obtained with the Carbachol control; for M1 Activity: modulating M1 receptor
T1 construct: expressed in transfected cells; host or cells: CHO (M1-CHO)
T1 sequence (P11229 1-460): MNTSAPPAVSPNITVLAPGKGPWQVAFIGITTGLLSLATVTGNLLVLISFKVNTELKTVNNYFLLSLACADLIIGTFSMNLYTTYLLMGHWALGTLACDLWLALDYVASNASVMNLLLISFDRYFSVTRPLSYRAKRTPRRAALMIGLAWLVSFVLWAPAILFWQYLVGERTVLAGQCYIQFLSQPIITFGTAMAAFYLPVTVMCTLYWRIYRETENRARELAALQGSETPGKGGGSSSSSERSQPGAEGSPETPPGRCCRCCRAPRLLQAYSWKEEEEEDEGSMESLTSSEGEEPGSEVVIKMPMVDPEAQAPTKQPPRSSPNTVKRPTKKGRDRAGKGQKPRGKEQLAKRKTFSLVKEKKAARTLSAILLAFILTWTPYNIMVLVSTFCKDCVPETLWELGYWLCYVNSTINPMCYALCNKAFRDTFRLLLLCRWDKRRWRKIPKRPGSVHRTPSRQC
Summary of the method: (§1)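 Measured via Fluo-3 fluorescence on a FLIPR, CHO cells with either muscarinic subtype received compound in 0.5% DMSO. Antagonism was assessed after 15 min pre-incubation followed by carbachol at each subtype's EC80; agonism from compound addition alone.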

M4 muscarinic receptor = target: T2, M4 muscarinic receptor (Homo sapiens, UniProt P08173); experiment: Functional mobilization of intracellular calcium (FLIPR) in M4-CHO cells; type: cell-based; conditions: Table 4; for Emax: 100% efficacy is the maximum response obtained with the Carbachol control; for M4 Activity: modulating M4 receptor
T2 construct: expressed in transfected cells; host or cells: CHO (M4-CHO)
T2 sequence (P08173 1-479): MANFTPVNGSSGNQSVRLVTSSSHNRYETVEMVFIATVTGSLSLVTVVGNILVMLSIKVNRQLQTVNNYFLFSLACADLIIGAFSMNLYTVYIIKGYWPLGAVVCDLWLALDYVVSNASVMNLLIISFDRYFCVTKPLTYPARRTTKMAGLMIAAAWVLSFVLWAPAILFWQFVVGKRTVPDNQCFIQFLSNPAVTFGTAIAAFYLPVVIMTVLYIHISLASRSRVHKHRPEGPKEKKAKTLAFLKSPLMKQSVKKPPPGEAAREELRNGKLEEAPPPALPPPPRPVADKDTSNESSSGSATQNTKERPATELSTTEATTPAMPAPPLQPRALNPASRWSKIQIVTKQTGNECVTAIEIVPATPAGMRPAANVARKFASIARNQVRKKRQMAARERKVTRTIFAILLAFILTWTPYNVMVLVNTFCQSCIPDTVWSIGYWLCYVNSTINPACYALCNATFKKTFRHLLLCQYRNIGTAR
Summary of the method: as §1

Structure (SMILES) | Emax (M1 muscarinic receptor) [%] | M1 Activity (M1 muscarinic receptor) | Emax (M4 muscarinic receptor) [%] | M4 Activity (M4 muscarinic receptor)
CCC=CCOC(=O)N1C2CCC1CC(N1CCC3(CC1)CN(C(C)=O)c1ccccc13)C2 (stereo not shown) [compound 618] | 25 to 100 | xxx (activity was measured to be less than 2.0 μM) | 25 to 100 | xxx (activity was measured to be less than 2.0 μM)
CN(C)C(=O)N1CC2(CCN(C3CCN(C(=O)c4ccon4)CC3)CC2)c2cc(F)ccc21 [compound 619] | 25 to 100 | xx (activity was measured to be between 2.0 μM and 5.0 μM) | 25 to 100 | xxx (activity was measured to be less than 2.0 μM)
CCCC#CCOC(=O)N1CCC(N2CCC3(CC2)CN(C(C)=O)c2ccccc23)CC1 [compound 620] | 25 to 100 | x (activity was measured to be greater than 5.0 μM) | < 25 | x (activity was measured to be greater than 5.0 μM)
O=C1CCCCC1N1CC2(CCN(C3CC4CCC(C4)C3)CC2)c2cc(F)ccc21 (stereo not shown) [compound 621] | 25 to 100 | xx (activity was measured to be between 2.0 μM and 5.0 μM) | 25 to 100 | xxx (activity was measured to be less than 2.0 μM)
Cc1ccc2c(c1)C1(CCN(CC3CC4CCC(C4)C3)CC1)CN2 (stereo not shown) [compound 622] | < 25 | x (activity was measured to be greater than 5.0 μM) | < 25 | x (activity was measured to be greater than 5.0 μM)
CC(=O)N1CC2(CCN(C3CC4CCC(C3)N4C(=O)O[C@H]3CCOC3)CC2)c2ccccc21 (stereo partly shown) [compound 623] | 25 to 100 | xxx (activity was measured to be less than 2.0 μM) | 25 to 100 | xxx (activity was measured to be less than 2.0 μM)
CCC(C)(C)C1CCC(N2CCC3(CC[C@H](NC(C)=O)c4ccccc43)CC2)CC1 (stereo partly shown) [compound 624] | 25 to 100 | xxx (activity was measured to be less than 2.0 μM) | < 25 | x (activity was measured to be greater than 5.0 μM)
CN(C)C(=O)N1CC2(CCN(C[C@@H]3CCN(C(=O)OCC(F)F)C3)CC2)c2cc(F)ccc21 [compound 625] | 25 to 100 | xxx (activity was measured to be less than 2.0 μM) | > 100 | xxx (activity was measured to be less than 2.0 μM)
CCOC(=O)N1CCC(N2CCC3(CC2)CN(C(C)=O)c2ccccc23)CC1 [compound 626] | 25 to 100 | xxx (activity was measured to be less than 2.0 μM) | 25 to 100 | xxx (activity was measured to be less than 2.0 μM)
CS(=O)(=O)N[C@H]1CCC2(CCN(CC3CC4C=CC3C4)CC2)c2ccccc21 (stereo partly shown) [compound 627] | 25 to 100 | xxx (activity was measured to be less than 2.0 μM) | 25 to 100 | xxx (activity was measured to be less than 2.0 μM)
COC(=O)N1CCCC(N2CCC3(CC2)CN(C(=O)N(C)C)c2ccc(F)cc23)CC1 (stereo not shown) [compound 628] | 25 to 100 | xxx (activity was measured to be less than 2.0 μM) | 25 to 100 | xxx (activity was measured to be less than 2.0 μM)
CCOC(=O)N1CCC(N2CCC3(CC2)CN(C(C)=O)c2c(-c4ccc(C(N)=O)cc4)cccc23)CC1 [compound 629] | 25 to 100 | xx (activity was measured to be between 2.0 μM and 5.0 μM) | 25 to 100 | xx (activity was measured to be between 2.0 μM and 5.0 μM)
CCCOC(=O)N1CCC(N2CCC3(CC2)CN(C(C)=O)c2ccc(F)cc23)C1 (stereo not shown) [compound 632] | < 25 | x (activity was measured to be greater than 5.0 μM) | < 25 | x (activity was measured to be greater than 5.0 μM)
